From the supplement of paper PMC10307832

Experiments:
Test in all cases: relative viability (nuclei count vs DMSO), 5 days (fraction); higher = more cells survive
AZ505 + Tozasertib = compound: C1CCC(CC1)N(CCNCCC2=C3C(=C(C=C2)O)NC(=O)CO3)C(=O)CCNCCC4=CC(=C(C=C4)Cl)Cl [AZ505] + Cc1cc(Nc2cc(N3CCN(C)CC3)nc(Sc3ccc(NC(=O)C4CC4)cc3)n2)n[nH]1 [Tozasertib] (partner 0.1 µM)
How it was run: (§1)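 One day after seeding in 1536-well plates, lung cancer cell lines were dosed by pin tool. Dosing was either single-drug or a fixed anchor-drug dose plus five library-drug doses (not always all listed) in √10 steps. After 5 days, nuclei were stained in one fix-and-stain step and counted on 4× images, and relative viability is the nuclei count of treated wells over that of vehicle wells, given as the median of duplicate plates.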

Dactolisib + Bortezomib = compound: Cn1c(=O)n(-c2ccc(C(C)(C)C#N)cc2)c2c3cc(-c4cnc5ccccc5c4)ccc3ncc21 [Dactolisib] + CC(C)C[C@H](NC(=O)[C@H](Cc1ccccc1)NC(=O)c1cnccn1)B(O)O [Bortezomib] (partner 0.002 µM)
How it was run: as §1

Dactolisib + Foretinib = compound: Cn1c(=O)n(-c2ccc(C(C)(C)C#N)cc2)c2c3cc(-c4cnc5ccccc5c4)ccc3ncc21 [Dactolisib] + COc1cc2c(Oc3ccc(NC(=O)C4(C(=O)Nc5ccc(F)cc5)CC4)cc3F)ccnc2cc1OCCCN1CCOCC1 [Foretinib] (partner 0.25 µM)
How it was run: as §1

Dactolisib + Linsitinib = compound: Cn1c(=O)n(-c2ccc(C(C)(C)C#N)cc2)c2c3cc(-c4cnc5ccccc5c4)ccc3ncc21 [Dactolisib] + C[C@]1(O)C[C@@H](c2nc(-c3ccc4ccc(-c5ccccc5)nc4c3)c3c(N)nccn32)C1 [Linsitinib] (partner 1 µM)
How it was run: as §1

Cell Line | relative viability (AZ505 + Tozasertib; first compound 0.08 µM) | relative viability (AZ505 + Tozasertib; first compound 0.253 µM) | relative viability (AZ505 + Tozasertib; first compound 0.8 µM) | relative viability (AZ505 + Tozasertib; first compound 2.53 µM) | relative viability (AZ505 + Tozasertib; first compound 8 µM) | relative viability (Dactolisib + Bortezomib; first compound 0.002 µM) | relative viability (Dactolisib + Bortezomib; first compound 0.006325 µM) | relative viability (Dactolisib + Bortezomib; first compound 0.02 µM) | relative viability (Dactolisib + Bortezomib; first compound 0.06325 µM) | relative viability (Dactolisib + Bortezomib; first compound 0.2 µM) | relative viability (Dactolisib + Foretinib; first compound 0.002 µM) | relative viability (Dactolisib + Foretinib; first compound 0.006325 µM) | relative viability (Dactolisib + Foretinib; first compound 0.02 µM) | relative viability (Dactolisib + Foretinib; first compound 0.06325 µM) | relative viability (Dactolisib + Foretinib; first compound 0.2 µM) | relative viability (Dactolisib + Linsitinib; first compound 0.002 µM) | relative viability (Dactolisib + Linsitinib; first compound 0.006325 µM) | relative viability (Dactolisib + Linsitinib; first compound 0.02 µM) | relative viability (Dactolisib + Linsitinib; first compound 0.06325 µM) | relative viability (Dactolisib + Linsitinib; first compound 0.2 µM)
PC-3 [JPC-3] | 0.83 | 0.919 | 0.87 | 0.848 | 0.867 | 0.847 | 0.842 | 0.802 | 0.902 | 0.869 | 1.13 | 1.06 | 1.03 | 0.816 | 0.565 | 0.996 | 0.984 | 1.03 | 0.816 | 0.639
NCI-H650 | 0.733 | 0.705 | 0.729 | 0.726 | 0.736 | 0.884 | 0.774 | 0.834 | 0.653 | 0.3 | 0.981 | 1.02 | 1.05 | 0.712 | 0.426 | 1.26 | 0.752 | 0.697 | 0.576 | 0.415
NCI-H838 | 0.253 | 0.286 | 0.257 | 0.268 | 0.265 | 0.852 | 0.725 | 0.434 | 0.22 | 0.242 | 1.1 | 0.876 | 0.606 | 0.288 | 0.342 | 0.915 | 0.444 | 0.652 | 0.226 | 0.22
COR-L 105 | 0.354 | 0.34 | 0.341 | 0.335 | 0.403 | 0.784 | 0.888 | 0.553 | 0.28 | 0.274 | 0.926 | 1 | 0.832 | 0.859 | 0.417 | 1.17 | 0.653 | 0.948 | 0.362 | 0.312
NCI-H2405 | 0.508 | 0.594 | 0.45 | 0.516 | 0.503 | 1 | 0.97 | 0.96 | 0.892 | 0.628 | 1.02 | 1.06 | 1.05 | 0.606 | 0.475 | 0.936 | 0.76 | 0.755 | 0.323 | 0.275
NCI-H661 | 0.356 | 0.377 | 0.351 | 0.32 | 0.367 | 0.659 | 0.87 | 0.67 | 0.397 | 0.288 | 1.04 | 1.01 | 0.977 | 0.439 | 0.459 | 0.453 | 0.454 | 0.505 | 0.223 | 0.23
NCI-H1915 | 0.422 | 0.447 | 0.432 | 0.416 | 0.399 | 1.06 | 0.931 | 0.965 | 0.902 | 0.737 | 1.19 | 1.06 | 1.08 | 0.832 | 0.467 | 1.11 | 1.13 | 1.11 | 0.901 | 0.631
CAL-12T | 0.298 | 0.426 | 0.308 | 0.303 | 0.302 | 1.05 | 1.13 | 0.825 | 0.721 | 0.338 | 1.25 | 1.09 | 0.972 | 0.898 | 0.241 | 0.911 | 0.72 | 0.753 | 0.291 | 0.334
SK-LU-1 | 0.312 | 0.302 | 0.242 | 0.345 | 0.235 | – | 1.05 | 1.21 | 1.16 | 0.457 | 0.806 | 0.713 | 0.575 | 0.382 | 0.245 | 1.26 | 0.988 | 0.728 | 0.494 | 0.397
LXF-289 | 0.2 | 0.172 | 0.183 | 0.21 | 0.229 | 1.07 | 1.03 | 1.07 | 0.971 | 0.648 | 1.02 | 0.952 | 0.99 | 0.987 | 0.827 | 0.952 | 0.98 | 0.987 | 0.757 | 0.658
NCI-H460 | 0.481 | 0.0927 | 0.551 | 0.204 | 0.299 | 1.28 | 1.11 | 0.984 | 0.106 | 0.0739 | 1.03 | 1 | 1.03 | 0.493 | 0.407 | 0.933 | 0.654 | 0.434 | 0.0937 | 0.0501
NCI-H2009 | 0.714 | 0.738 | 0.805 | 0.706 | 0.64 | 1.07 | 1.01 | 0.972 | 0.44 | 0.288 | 1.28 | 1.24 | 1.06 | 1.2 | 0.625 | 1.21 | 1.18 | 1.26 | 0.639 | 0.497
201T | 0.896 | 1.08 | 0.905 | 0.943 | 0.875 | 1.05 | 1.08 | 1.08 | 1.07 | 0.856 | 0.916 | 1.11 | 1.06 | 0.636 | 0.491 | 1.03 | 1.08 | 0.979 | 0.862 | 0.73
NCI-H23 | 0.388 | – | 0.392 | 0.402 | 0.327 | 1.04 | 0.924 | 0.798 | 0.247 | 0.294 | 1.17 | 0.997 | 0.69 | 0.456 | 0.413 | 0.553 | 0.598 | 0.368 | 0.243 | 0.287
LOU-NH91 | 0.654 | 0.696 | 0.577 | 0.591 | 0.625 | 0.526 | 0.502 | 0.49 | 0.458 | 0.43 | 0.897 | 0.921 | 0.9 | 0.658 | 0.548 | 0.712 | 0.888 | 0.837 | 0.588 | 0.527
NCI-H2085 | 0.663 | 0.786 | 0.823 | 0.825 | 0.891 | 1.1 | 0.884 | 0.97 | 0.662 | 0.376 | 1.09 | 1.05 | 0.747 | 0.337 | 0.301 | 1.03 | 0.714 | 0.636 | 0.361 | 0.381
